# According to ChEMBL document CHEMBL1201862, “PubChem BioAssay data set” (2004):
#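 Method: 48-hour compound exposure of cells in 96-well plates, five concentrations, linear interpolation of endpoints. GI50 is the concentration that inhibits growth by half.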 Calls of active or inactive are those of the source. Cut-off read from the data, not from the text of the source: active = GI50 up to about 1.1 µM and inactive = higher.
# Experiments:
# Experiment in all cases: growth of human tumour cells (NCI), 48 h
# NCI-H522 = system: NCI-H522
# DLD-1 = system: DLD-1
# SK-MEL-28 = system: SK-MEL-28
# DMS-273 = system: DMS-273
# KM12 = system: KM12
# HOP-18 = system: HOP-18
# SNB-19 = system: SNB-19
# IGROV-1 = system: IGROV-1
# OVCAR-4 = system: OVCAR-4
# M19-MEL = system: M19-MEL
# TK-10 = system: TK-10
# 786-0 = system: 786-0
# OVCAR-3 = system: OVCAR-3
# ACHN = system: ACHN
# UO-31 = system: UO-31
# A549 = system: A549
# SNB-78 = system: SNB-78
# HT-29 = system: HT-29
# OVCAR-8 = system: OVCAR-8
# SNB-75 = system: SNB-75
# SK-OV-3 = system: SK-OV-3
# U-251 = system: U-251
# K562 = system: K562
# DMS-114 = system: DMS-114
# XF498 = system: XF498
# NCI-H460 = system: NCI-H460
# LXFL 529 = system: LXFL 529
# A498 = system: A498
# COLO 205 = system: COLO 205
# MOLT-4 = system: MOLT-4
# SF-268 = system: SF-268
# LOX IMVI = system: LOX IMVI
# Malme-3M = system: Malme-3M
# KM-20L2 = system: KM-20L2
# SK-MEL-5 = system: SK-MEL-5
# SW-620 = system: SW-620
# HOP-92 = system: HOP-92
# EKVX = system: EKVX
# HCT-15 = system: HCT-15
# UACC-257 = system: UACC-257
# RXF 631 = system: RXF 631
# RXF 393 = system: RXF 393
# NCI-H23 = system: NCI-H23
# M14 = system: M14
# NCI-H226 = system: NCI-H226
# SK-MEL-2 = system: SK-MEL-2
# CAKI-1 = system: CAKI-1
# RPMI-8226 = system: RPMI-8226
# UACC-62 = system: UACC-62
# SF-539 = system: SF-539
# HCT-116 = system: HCT-116
# CCRF-CEM = system: CCRF-CEM
# OVCAR-5 = system: OVCAR-5
# SN12C = system: SN12C
# HCC 2998 = system: HCC 2998
# SF-295 = system: SF-295
# HOP-62 = system: HOP-62
# HL-60 = system: HL-60
# SR = system: SR
structure (smiles),measurement,setting,value
CC(C)c1ccc(/C=C(\NC(=O)c2ccccc2)c2nc3ccccc3[nH]2)cc1,GI50,NCI-H522,26.7 µM (inactive)
same,GI50,DLD-1,30.3 µM (inactive)
same,GI50,SK-MEL-28,> 10 µM (inactive)
same,GI50,DMS-273,37.9 µM (inactive)
same,GI50,KM12,32.2 µM (inactive)
same,GI50,HOP-18,26.4 µM (inactive)
same,GI50,SNB-19,47.8 µM (inactive)
same,GI50,IGROV-1,73.8 µM (inactive)
same,GI50,OVCAR-4,30.2 µM (inactive)
same,GI50,M19-MEL,33.3 µM (inactive)
same,GI50,TK-10,54.5 µM (inactive)
same,GI50,786-0,39.3 µM (inactive)
same,GI50,OVCAR-3,37.3 µM (inactive)
same,GI50,ACHN,33.7 µM (inactive)
same,GI50,UO-31,38.7 µM (inactive)
same,GI50,A549,27.9 µM (inactive)
same,GI50,SNB-78,42.9 µM (inactive)
same,GI50,HT-29,33.6 µM (inactive)
same,GI50,OVCAR-8,32.4 µM (inactive)
same,GI50,SNB-75,36.3 µM (inactive)
same,GI50,SK-OV-3,> 100 µM (inactive)
same,GI50,U-251,39.4 µM (inactive)
same,GI50,K562,27.5 µM (inactive)
same,GI50,DMS-114,25.3 µM (inactive)
same,GI50,XF498,55.3 µM (inactive)
same,GI50,NCI-H460,59.4 µM (inactive)
same,GI50,LXFL 529,31.8 µM (inactive)
same,GI50,A498,40.6 µM (inactive)
same,GI50,COLO 205,35.8 µM (inactive)
same,GI50,MOLT-4,23.3 µM (inactive)
same,GI50,SF-268,41 µM (inactive)
same,GI50,LOX IMVI,27.2 µM (inactive)
same,GI50,Malme-3M,79.3 µM (inactive)
same,GI50,KM-20L2,58.1 µM (inactive)
same,GI50,SK-MEL-5,23.5 µM (inactive)
same,GI50,SW-620,49.4 µM (inactive)
same,GI50,HOP-92,36.7 µM (inactive)
same,GI50,EKVX,34.7 µM (inactive)
same,GI50,HCT-15,43.1 µM
same,GI50,UACC-257,35.2 µM (inactive)
same,GI50,RXF 631,23.6 µM (inactive)
same,GI50,RXF 393,36.5 µM (inactive)
same,GI50,NCI-H23,26.8 µM (inactive)
same,GI50,M14,32.3 µM (inactive)
same,GI50,NCI-H226,55.8 µM (inactive)
same,GI50,SK-MEL-2,34.4 µM (inactive)
same,GI50,CAKI-1,50.6 µM (inactive)
same,GI50,RPMI-8226,20 µM (inactive)
same,GI50,UACC-62,37.4 µM (inactive)
same,GI50,SF-539,77.1 µM (inactive)
same,GI50,HCT-116,31.6 µM (inactive)
same,GI50,CCRF-CEM,34.1 µM (inactive)
same,GI50,OVCAR-5,75.3 µM (inactive)
same,GI50,SN12C,55 µM (inactive)
CC1=C(C(=O)Nc2ccccc2)C(c2ccc3c(c2)OCO3)C(C(=O)Nc2ccccc2)=C(C)N1,GI50,NCI-H522,17 µM (inactive)
same,GI50,DLD-1,36.8 µM (inactive)
same,GI50,SK-MEL-28,31.6 µM (inactive)
same,GI50,DMS-273,26.7 µM (inactive)
same,GI50,KM12,28.5 µM (inactive)
same,GI50,HOP-18,41.5 µM (inactive)
same,GI50,SNB-19,25.7 µM (inactive)
same,GI50,HCC 2998,44.6 µM (inactive)
same,GI50,IGROV-1,60.7 µM (inactive)
same,GI50,OVCAR-4,21.6 µM (inactive)
same,GI50,M19-MEL,40.4 µM (inactive)
same,GI50,SF-295,35.3 µM (inactive)
same,GI50,TK-10,59.7 µM (inactive)
same,GI50,786-0,36.3 µM (inactive)
same,GI50,OVCAR-3,22.7 µM (inactive)
same,GI50,ACHN,33.7 µM (inactive)
same,GI50,UO-31,29.5 µM (inactive)
same,GI50,A549,49.5 µM (inactive)
same,GI50,HT-29,37.2 µM (inactive)
same,GI50,OVCAR-8,37.9 µM (inactive)
same,GI50,SK-OV-3,47.3 µM (inactive)
same,GI50,HOP-62,41.8 µM (inactive)
same,GI50,K562,17.5 µM (inactive)
same,GI50,DMS-114,26.2 µM (inactive)
same,GI50,XF498,24.2 µM (inactive)
same,GI50,NCI-H460,43.9 µM (inactive)
same,GI50,HL-60,18.1 µM (inactive)
same,GI50,LXFL 529,20 µM (inactive)
same,GI50,A498,19.5 µM (inactive)
same,GI50,COLO 205,42.7 µM (inactive)
same,GI50,MOLT-4,19 µM (inactive)
same,GI50,SF-268,25.3 µM (inactive)
same,GI50,LOX IMVI,24.4 µM (inactive)
same,GI50,Malme-3M,62.1 µM (inactive)
same,GI50,KM-20L2,> 10 µM (inactive)
same,GI50,SK-MEL-5,33.7 µM (inactive)
same,GI50,SW-620,3.5 µM (inactive)
same,GI50,EKVX,53.3 µM (inactive)
same,GI50,HCT-15,33 µM
same,GI50,UACC-257,40.9 µM (inactive)
same,GI50,RXF 631,28.7 µM (inactive)
same,GI50,RXF 393,11.1 µM (inactive)
same,GI50,NCI-H23,37.2 µM (inactive)
same,GI50,M14,33.7 µM (inactive)
same,GI50,NCI-H226,39.6 µM (inactive)
same,GI50,SK-MEL-2,28.8 µM (inactive)
same,GI50,CAKI-1,31.3 µM (inactive)
same,GI50,RPMI-8226,23.1 µM (inactive)
same,GI50,UACC-62,30.1 µM (inactive)
same,GI50,SF-539,26.5 µM (inactive)
same,GI50,CCRF-CEM,15.2 µM (inactive)
same,GI50,OVCAR-5,> 10 µM (inactive)
same,GI50,SN12C,34.2 µM (inactive)
CCCCC/C=C1\CCC(CN(C)C)C1=O (centres undefined),GI50,NCI-H522,4.06 µM (inactive)
same,GI50,DLD-1,3.73 µM (inactive)
same,GI50,SK-MEL-28,9.89 µM (inactive)
same,GI50,DMS-273,13.6 µM (inactive)
same,GI50,KM12,4.8 µM (inactive)
same,GI50,HOP-18,24 µM (inactive)
same,GI50,SNB-19,19.5 µM (inactive)
same,GI50,HCC 2998,16.9 µM (inactive)
same,GI50,IGROV-1,17.5 µM (inactive)
same,GI50,OVCAR-4,20.1 µM (inactive)
same,GI50,M19-MEL,10.4 µM (inactive)
same,GI50,SF-295,20 µM (inactive)
same,GI50,TK-10,> 23.4 µM (inactive)
same,GI50,786-0,2.71 µM (inactive)
same,GI50,OVCAR-3,15.6 µM (inactive)
same,GI50,ACHN,13.9 µM (inactive)
same,GI50,UO-31,17 µM (inactive)
same,GI50,A549,34.1 µM (inactive)
same,GI50,SNB-78,19.7 µM (inactive)
same,GI50,HT-29,28.2 µM (inactive)
same,GI50,OVCAR-8,> 21.5 µM (inactive)
same,GI50,SNB-75,16.2 µM (inactive)
same,GI50,SK-OV-3,15 µM (inactive)
same,GI50,U-251,8.2 µM (inactive)
same,GI50,HOP-62,17.7 µM (inactive)
same,GI50,K562,1.94 µM (inactive)
same,GI50,DMS-114,13.5 µM (inactive)
same,GI50,XF498,14.9 µM (inactive)
same,GI50,NCI-H460,31.5 µM (inactive)
same,GI50,HL-60,6.97 µM (inactive)
same,GI50,LXFL 529,1.82 µM (inactive)
same,GI50,COLO 205,8.99 µM (inactive)
same,GI50,MOLT-4,1.95 µM (inactive)
same,GI50,SF-268,19.1 µM (inactive)
same,GI50,LOX IMVI,6.79 µM (inactive)
same,GI50,Malme-3M,14.6 µM (inactive)
same,GI50,KM-20L2,15.1 µM (inactive)
same,GI50,SK-MEL-5,18.2 µM (inactive)
same,GI50,SW-620,3.76 µM (inactive)
same,GI50,HOP-92,11.5 µM (inactive)
same,GI50,EKVX,26 µM (inactive)
same,GI50,HCT-15,3.17 µM
same,GI50,UACC-257,16.3 µM (inactive)
same,GI50,RXF 631,14.7 µM (inactive)
same,GI50,NCI-H23,17.7 µM (inactive)
same,GI50,M14,14.1 µM (inactive)
same,GI50,NCI-H226,15.5 µM (inactive)
same,GI50,SK-MEL-2,19.9 µM (inactive)
same,GI50,CAKI-1,7.05 µM (inactive)
same,GI50,RPMI-8226,0.386 µM (active)
same,GI50,UACC-62,15.9 µM (inactive)
same,GI50,SF-539,10.9 µM (inactive)
same,GI50,HCT-116,11.8 µM (inactive)
same,GI50,CCRF-CEM,1.56 µM (inactive)
same,GI50,SR,3.79 µM (inactive)
same,GI50,OVCAR-5,18.6 µM (inactive)
same,GI50,SN12C,14.7 µM (inactive)
